Key:
[1] = test system: ORYSAT Rice, Tebonnet; test: Rice tolerance, flooded paddy (Table IV); format: in vivo, Oryza sativa; parameters: scale not given here; details: crop tolerance
In short: (§1)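 Flooded greenhouse pots; water 1.5–3 cm over soil throughout. Weeds 3–5 cm, rice 1.5–2.5 leaf. Dose ~0.0313–0.500 kg/ha a.i., aqueous/acetone 50/50 v/v into flood water. Visual herbicidal rating at 3–4 wk.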

[2] = test system: CYPSE Flatsedge; test: Postemergence weed control, flooded paddy (Table IV); format: in vivo, Cyperus serotinus; parameters: scale not given here
In short: as §1

[3] = test system: CYPIR Rice Flatsedge; test: as above; format: in vivo, Cyperus iria; parameters: scale not given here
In short: as §1

[4] = test system: Ragweed, Common, Ambrosia artemisifolia; test: Preemergence herbicidal evaluation, AMBEL; format: in vivo, L.; details: 0.2500 kg/ha
In short: (§2)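 Greenhouse preemergence test with soil-surface spray of compound (aqueous acetone, approx. 0.0156–0.500 kg per hectare) just after planting. Injury was scored visually on a 0–9 scale at 4–5 weeks.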

[5] = test system: Galium, Galium aparine; test: Postemergence herbicidal evaluation, GALAP; format: in vivo
In short: (§3)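 Greenhouse postemergence test. Seedlings about two weeks old sprayed (40 psi) with compound in 50/50 acetone/water, 0.5% TWEEN 20, at rates near 0.0157–0.500 kg/ha; rated 0–9 by eye at 4–5 weeks.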

[6] = test system: Wheat, Winter, cv Riband, Triticum aestivum; test: Postemergence herbicidal evaluation, TRZAWR; format: in vivo
In short: as §3

[7] = test system: Rice, Tebonnet, Oryza sativa; test: Postemergence herbicidal evaluation, ORYSAT; format: in vivo, (L.) Tebonnet
In short: as §3

[8] = test system: ECHORC Watergrass (Calif.); test: Postemergence weed control, flooded paddy (Table IV); format: in vivo, Echinochloa oryzoides; parameters: scale not given here
In short: as §1

[9] = test system: Wheat, Winter, cv Riband, Triticum aestivum; test: Preemergence herbicidal evaluation, TRZAWR; format: in vivo; details: 0.2500 kg/ha
In short: as §2

[10] = test system: CYPIR Rice Flatsedge; test: Preemergence weed control, flooded paddy (Table III); format: in vivo, Cyperus iria; parameters: scale not given here
Procedure: (§4) Preemergence herbicidal activity under flooded paddy conditions is determined as follows: plant seeds or propagating organs are planted in the top 0.5 cm of silt loam soil in 32 oz. plastic containers with a diameter of 10.5 cm and no drainage holes. Water is added to these containers and maintained at 1.5 to 3 cm above the soil surface for the duration of the experiment. The test compounds are applied as aqueous/acetone mixtures 50/50 v/v pipetted directly into the flood water to give the equivalent of about 0.0313 to 0.500 kg/ha of active ingredient. The treated containers are placed on greenhouse benches and cared for in accordance with conventional greenhouse procedures. Three to four weeks after treatment, the test is terminated and each container is examined and herbicidal effect rated according to the rating system provided in Example 185. The compounds evaluated are reported by compound number given in Example 185.

[11] = test system: SAGPY Arrowhead (Pygmaea); test: Postemergence weed control, flooded paddy (Table IV); format: in vivo, Sagittaria pygmaea; parameters: scale not given here
In short: as §1

[12] = test system: Barnyardgrass, Echinochloa crus-galli; test: Postemergence herbicidal evaluation, ECHCG; format: in vivo, (L.) Beau
In short: as §3

[13] = test system: MOOVA Monochoria; test: Postemergence weed control, flooded paddy (Table IV); format: in vivo, Monochoria vaginalis; parameters: scale not given here
In short: as §1

[14] = test system: CYPSE Flatsedge; test: Preemergence weed control, flooded paddy (Table III); format: in vivo, Cyperus serotinus; parameters: scale not given here
Procedure: as §4

[15] = test system: ORYSAT Rice, Tebonnet; test: Tolerance of transplanted rice to post-transplant application (Table III); format: in vivo, Oryza sativa; parameters: scale not given here; details: crop tolerance
Procedure: The tolerance of transplanted rice to post-transplanted herbicide applications is determined as follows: two ten-day-old rice seedlings (cv. Tebonnet) are transplanted into silt loam soil in 32 oz. plastic containers with a diameter of 10.5 cm and no drainage holes. After transplanting, the containers are flooded and the water level is maintained at 1.5 to 3 cm above the soil surface. Three days after transplanting, the flooded soil surface of the containers is treated with the selected aqueous/acetone 50/50 v/v mixture containing the test compounds to provide the equivalent of about 0.0313 to 0.500 kg/ha of active ingredient. The treated containers are placed on greenhouse benches, watered such that the water level is maintained as stated above, and cared for in accordance with conventional greenhouse procedures. Three to four weeks after treatment, the test is terminated and each container is examined and herbicidal effect rated according to the rating system provided in Example 185. The compounds evaluated are reported by compound number given in Example 185.

COC(=O)COc1ccc(C)cc1-c1nsc2ccc(-n3c(=O)cc(C(F)(F)F)n(C)c3=O)cc12 [Compound 2, Methyl {{2-{5-[3,6-dihydro-3-methyl-4-(trifluoromethyl) -2,6-dioxo-1(2H)-pyrimidinyl]-1,2-benzisothiazol-3-yl]-p-tolyl}oxy}acetate]
9.0: herbicidal effect rating ([3]; 0.1250 kg/ha) | herbicidal effect rating ([3]; 0.2500 kg/ha) | herbicidal effect rating ([3]; 0.5000 kg/ha) | herbicide rating (0-9) [4] | herbicide rating (0-9) ([5]; 0.0630 kg/ha) | herbicide rating (0-9) ([5]; 0.2500 kg/ha) | herbicide rating (0-9) ([6]; 0.2500 kg/ha) | herbicide rating (0-9) ([7]; 0.2500 kg/ha) | herbicidal effect rating ([8]; 0.2500 kg/ha) | herbicidal effect rating ([8]; 0.5000 kg/ha) | herbicidal effect rating ([10]; 0.0625 kg/ha) | herbicidal effect rating ([10]; 0.1250 kg/ha) | herbicidal effect rating ([10]; 0.2500 kg/ha) | herbicidal effect rating ([10]; 0.5000 kg/ha) | herbicide rating (0-9) ([12]; 0.0630 kg/ha) | herbicide rating (0-9) ([12]; 0.2500 kg/ha) | herbicidal effect rating ([13]; 0.1250 kg/ha) | herbicidal effect rating ([13]; 0.2500 kg/ha) | herbicidal effect rating ([13]; 0.5000 kg/ha) | herbicidal effect rating ([15]; 0.5000 kg/ha)
3.0: herbicidal effect rating ([1]; 0.1250 kg/ha) | herbicidal effect rating ([15]; 0.0625 kg/ha) | herbicidal effect rating ([15]; 0.1250 kg/ha)
4.0: herbicide rating (0-9) [9] | herbicidal effect rating ([11]; 0.5000 kg/ha)
8.0: herbicidal effect rating ([1]; 0.5000 kg/ha) | herbicidal effect rating ([10]; 0.0313 kg/ha)
7.2: herbicide rating (0-9) ([6]; 0.0630 kg/ha)
7.8: herbicide rating (0-9) ([7]; 0.0630 kg/ha)
0.0: herbicidal effect rating ([2]; 0.1250 kg/ha) | herbicidal effect rating ([2]; 0.2500 kg/ha) | herbicidal effect rating ([2]; 0.5000 kg/ha) | herbicidal effect rating ([11]; 0.1250 kg/ha) | herbicidal effect rating ([14]; 0.0313 kg/ha) | herbicidal effect rating ([14]; 0.0625 kg/ha) | herbicidal effect rating ([14]; 0.1250 kg/ha) | herbicidal effect rating ([14]; 0.2500 kg/ha) | herbicidal effect rating ([14]; 0.5000 kg/ha)
5.0: herbicidal effect rating ([15]; 0.2500 kg/ha)
2.0: herbicidal effect rating ([11]; 0.2500 kg/ha) | herbicidal effect rating ([15]; 0.0313 kg/ha)
7.0: herbicidal effect rating ([1]; 0.2500 kg/ha) | herbicidal effect rating ([8]; 0.1250 kg/ha)

COC(=O)C(C)Oc1cc(C)c(C)cc1-c1nsc2ccc(-n3c(=O)cc(C(F)(F)F)n(C)c3=O)cc12 (stereo not shown) [Compound 13, Methyl 2-{{6-{5-[3,6-dihydro-3-methyl-4-(trifluoromethyl)-2,6-dioxo-1(2H)-pyrimidinyl]-1,2-benzisothiazol-3-yl}-3,4-xylyl}oxy}propionate]
9.0: herbicidal effect rating ([3]; 0.1250 kg/ha) | herbicidal effect rating ([3]; 0.2500 kg/ha) | herbicidal effect rating ([3]; 0.5000 kg/ha) | herbicide rating (0-9) [4] | herbicidal effect rating ([8]; 0.5000 kg/ha) | herbicidal effect rating ([10]; 0.0313 kg/ha) | herbicidal effect rating ([10]; 0.0625 kg/ha) | herbicidal effect rating ([10]; 0.1250 kg/ha) | herbicidal effect rating ([10]; 0.2500 kg/ha) | herbicidal effect rating ([10]; 0.5000 kg/ha) | herbicidal effect rating ([11]; 0.5000 kg/ha) | herbicide rating (0-9) ([12]; 0.2500 kg/ha) | herbicidal effect rating ([13]; 0.1250 kg/ha) | herbicidal effect rating ([13]; 0.2500 kg/ha) | herbicidal effect rating ([13]; 0.5000 kg/ha) | herbicidal effect rating ([15]; 0.5000 kg/ha)
7.0: herbicidal effect rating ([1]; 0.5000 kg/ha) | herbicidal effect rating ([14]; 0.1250 kg/ha) | herbicidal effect rating ([14]; 0.2500 kg/ha) | herbicidal effect rating ([14]; 0.5000 kg/ha) | herbicidal effect rating ([15]; 0.1250 kg/ha) | herbicidal effect rating ([15]; 0.2500 kg/ha)
4.0: herbicidal effect rating ([1]; 0.1250 kg/ha) | herbicidal effect rating ([1]; 0.2500 kg/ha) | herbicidal effect rating ([2]; 0.2500 kg/ha) | herbicide rating (0-9) [9] | herbicidal effect rating ([15]; 0.0313 kg/ha)
2.0: herbicidal effect rating ([2]; 0.1250 kg/ha) | herbicidal effect rating ([2]; 0.5000 kg/ha) | herbicidal effect rating ([11]; 0.1250 kg/ha) | herbicidal effect rating ([11]; 0.2500 kg/ha) | herbicidal effect rating ([14]; 0.0625 kg/ha)
8.5: herbicide rating (0-9) ([6]; 0.2500 kg/ha)
0.0: herbicidal effect rating ([14]; 0.0313 kg/ha)
6.0: herbicidal effect rating ([8]; 0.1250 kg/ha) | herbicidal effect rating ([15]; 0.0625 kg/ha)
8.0: herbicide rating (0-9) ([5]; 0.2500 kg/ha) | herbicide rating (0-9) ([7]; 0.2500 kg/ha) | herbicidal effect rating ([8]; 0.2500 kg/ha)

Source: patent US6156700A, “3-(1,2-Benzisothiazol- and isoxazol-5-yl)-2,4(1H,3H)-pyrimidinedione or thione and 3-(1,2-benzisothiazol- and isoxazol-5-yl)-4(3H)-pyrimidinone or thione herbicidal agents” (American Cyanmid Company, priority 1998, dated 2000)
